Experimental data reported in paper PMC6133092, “Synthesis of 2-alkylthio-N-(quinazolin-2-yl)benzenesulfonamide derivatives: anticancer activity, QSAR studies, and metabolic stability” (Monatshefte Fur Chemie, 2018).

Tests used:
[1] = test system: PC-3; experiment: NCI-60 single dose screen, PC-3; format: cell-based; settings: Homo sapiens, Prostate cancer, single concentration 10^−5 M, read-out: IGP (inhibition growth percent) PC-3
Method: (§1) Aside from above, compounds 9–14 and 17–24 were also submitted to National Cancer Institute and evaluated for the cytotoxic effects toward 60 cell lines at a single dose of 10 μM (Table 2). […] As it was summarized in Table 2, leukemia RPMI-8226 and NSCLC A549/ATCC were most sensitive to compounds 18, 22, and 24. These derivatives in 10 μM concentration inhibited the growth of approximately 50% cells belonging to the above mention cell lines.
(§2) Cytotoxicity evaluation of compounds 9–14 and 17–24 was performed at the National Cancer Institute according to NCI-60 DTP human tumor cell line screen procedure.

[2] = test system: A549/ATCC; experiment: NCI-60 single dose screen, A549/ATCC; format: cell-based; settings: Homo sapiens, A549, NSCLC; single concentration 10^−5 M; read-out: IGP (inhibition growth percent) A549/ATCC
Method: as §1, §2

[3] = test system: NCI-H522; experiment: NCI-60 single dose screen, NCI-H522; format: cell-based; settings: Homo sapiens, NSCLC, single concentration 10^−5 M, read-out: IGP (inhibition growth percent) NCI-H522
Method: as §1, §2

[4] = test system: HeLa (cervical cancer); experiment: MTT cell viability assay, HeLa; format: cell-based; settings: Homo sapiens
Method: (§3) All chemicals, if not stated otherwise, were obtained from Sigma-Aldrich (St. Louis, MO, USA). The MCF-7 and HeLa cell lines were purchased from Cell Lines Services (Eppelheim, Germany), the HCT-116 cell line was purchased from ATCC (ATCC-No: CCL-247). Cells were cultured in Dulbecco’s modified Eagle’s medium (DMEM) supplemented with 10% fetal bovine serum, 2 mM glutamine, 100 units/cm^3 penicillin, and 100 μg/cm^3 streptomycin. Cultures were maintained in a humidified atmosphere with 5% CO2 at 37 °C in an incubator (Heraceus, HeraCell).
(§4) Cell viability was determined using the MTT (3-(4,5-dimethylthiazol-2-yl)-2,5-diphenyltetrazolium bromide) assay. Cells were seeded in 96-well plates at a density of 5 × 10^3 cells/well and treated for 72 h with the examined compounds in the concentration range 1–100 μM (1, 10, 25, 50, and 100 μM). Following treatment, MTT (0.5 mg/cm^3) was added to the medium and cells were further incubated for 2 h at 37 °C. Cells were lysed with DMSO and the absorbance of the formazan solution was measured at 550 nm with a plate reader (Victor, 1420 multilabel counter). […] The experiment was performed in triplicate. Values are expressed as the mean ± SD of at least three independent experiments.

[5] = test system: HCT-116; experiment: NCI-60 single dose screen, HCT-116; format: cell-based; settings: Homo sapiens, Colon cancer, single concentration 10^−5 M, read-out: IGP (inhibition growth percent) HCT-116
Method: as §1, §2

[6] = test system: HCT-116 (colon cancer); experiment: MTT cell viability assay, HCT-116; format: cell-based; settings: Homo sapiens, 72 h, mean ± SD
Method: as §3, §4

[7] = test system: MCF-7 (breast cancer); experiment: MTT cell viability assay, MCF-7; format: cell-based, human; settings: Homo sapiens, MCF7, 72 h, mean ± SD
Method: All of the newly synthesized compounds 9–24 were evaluated for their effects on cell viability in three human cancer cell lines: HCT-116 (colon cancer), HeLa (cervical cancer), and MCF-7 (breast cancer). Cisplatin was used as reference drug. […] Considering the activity of derivatives 9–12, 15, 17, 18, and 21–24, it can be noticed that phenyl group as R^3 bring an increase of cytotoxicity in comparison with methyl in place of R^3. However, this impact seems to be the most important for compounds with the bulky group in R^1 and generally, it is less for a set of derivatives with methyl group substituted in R^1 (9–12).
as §3, §4

[8] = test system: RPMI-8226; experiment: NCI-60 single dose screen, RPMI-8226; format: cell-based; settings: Homo sapiens, RPMI-8226, Leukemia; single concentration 10^−5 M; read-out: IGP (inhibition growth percent) RPMI-8226
Method: as §1, §2

[9] = test system: EKVX; experiment: NCI-60 single dose screen, EKVX; format: cell-based; settings: Homo sapiens, NSCLC, single concentration 10^−5 M, read-out: IGP (inhibition growth percent) EKVX
Method: as §1, §2

[10] = test system: MCF-7; experiment: NCI-60 single dose screen, MCF-7; format: cell-based; settings: Homo sapiens, MCF7; Breast cancer; single concentration 10^−5 M; read-out: IGP (inhibition growth percent) MCF-7
Method: as §1, §2

[11] = test system: MOLT-4; experiment: NCI-60 single dose screen, MOLT-4; format: cell-based; settings: Homo sapiens, Leukemia, single concentration 10^−5 M, read-out: IGP (inhibition growth percent) MOLT-4
Method: as §1, §2

[12] = test system: UO-31; experiment: NCI-60 single dose screen, UO-31; format: cell-based; settings: Homo sapiens, Renal cancer, single concentration 10^−5 M, read-out: IGP (inhibition growth percent) UO-31
Method: as §1, §2

[13] = test system: UACC-62; experiment: NCI-60 single dose screen, UACC-62; format: cell-based; settings: Homo sapiens, Melanoma, single concentration 10^−5 M, read-out: IGP (inhibition growth percent) UACC-62
Method: as §1, §2

[14] = Metabolic stability in human liver microsomes with NADPH; format: in vitro ADME; settings: pooled human liver microsomes, pH 7.4, human liver microsomes 0.5 mg/cm^3, NADPH 1 mM, 10 μM compound, 37 °C, read-out: in vitro metabolic half-life t1/2
Method: Selected derivatives were submitted to metabolic stability study to assess their ability to remain unchanged in the presence of human metabolic enzymes. Human liver microsomes were used as they are a rich source of all common CYP isoenzymes. In vitro incubations were performed in the presence of NADPH as a cofactor and the disappearance of a derivative was followed using LC–MS technique. The in vitro metabolic half-life values are gathered in Fig. 3.
Stock solutions of studied compounds were prepared at concentration of 10 mM in DMSO. […] Incubation mixture contained 10 μM of a studied derivative, 1 mM of NADPH (Sigma-Aldrich) and 0.5 mg/cm^3 of pooled human liver microsomes (HLM, Sigma-Aldrich) in potassium phosphate buffer (0.1 M, pH 7.4). Incubation was carried out in thermostat at 37 °C and started by addition of studied compound. 50 mm^3 samples were taken at starting point and after 5, 15, 30, 45, and 60 min. Enzymatic reaction was terminated by the addition of the equal volume of ice-cold acetonitrile. Incubations were performed in triplicates, the average t1/2 and standard deviation was calculated. Control incubations were performed without NADPH to assess chemical instability. After collection, samples were immediately centrifuged (10 min, 10,000 rpm) and resulted supernatant was directly analyzed or kept in − 80 °C until LC–MS analysis. Natural logarithm of a compound over IS peak area ratio was plotted versus incubation time. Metabolic half-time (t1/2) was calculated from the slope of the linear regression.
LC–MS analysis was performed on an Agilent 1260 system coupled to SingleQuad 6120 mass spectrometer (Agilent Technologies, Santa Clara, CA, USA). Poroshell EC-C18 (2.1 mm × 150 mm, 2.7 μm, Agilent Technologies, Santa Clara, CA, USA) was used in reversed-phase mode with gradient elution starting with 5% of phase A (10 mM ammonium formate in water) and 95% of phase B (10 mM ammonium formate in acetonitrile–water mixture, 95:5 v/v). […] Total analysis time was 15 min at 40 °C, flow rate was 1 cm^3/min and the injection volume was 5 mm^3. The mass spectrometer was equipped with electrospray ion source and operated in positive ionization. Mass analyzer was set individually to each compound to detect [M+H]^+ protonated molecule. MSD parameters of the ESI source were as follows: nebulizer pressure 35 psig (N2), drying gas […] (N2), drying gas temperature 300 °C, capillary voltage 3 kV, fragmentor voltage 150 V.

[15] = test system: SR; experiment: NCI-60 single dose screen, SR; format: cell-based; settings: Homo sapiens, Leukemia, single concentration 10^−5 M, read-out: IGP (inhibition growth percent) SR
Method: as §1, §2

[16] = test system: HOP-92; experiment: NCI-60 single dose screen, HOP-92; format: cell-based; settings: Homo sapiens, NSCLC, single concentration 10^−5 M, read-out: IGP (inhibition growth percent) HOP-92
Method: as §1, §2

[17] = Table 4, repeats Table 1 values without SD and unit

Structure (SMILES): Cc1cc(S(=O)(=O)Nc2nc(C)c3ccccc3n2)c(SCc2cc3c(cc2Cl)OCO3)cc1Cl [Compound 11, 4-Chloro-2-(6-chlorobenzo[1,3]dioxol-5-ylmethylthio)-5-methyl-N-(4-methylquinazolin-2-yl)benzenesulfonamide]
- inhibition at 10 µM [1]: 23%
- inhibition at 10 µM [2]: 34%
- inhibition at 10 µM [3]: 19%
- IC50 ([4]; MTT, 72 h, mean ± SD): 58 ± 2 µM
- IC50 [4, 17]: 58 µM
- inhibition at 10 µM [5]: 30%
- IC50 [6]: 46 ± 1 µM
- IC50 [7]: 57 ± 2 µM
- inhibition at 10 µM [8]: 32%
- inhibition at 10 µM [9]: 17%
- inhibition at 10 µM [10]: 4%
- inhibition at 10 µM [11]: 20%
- inhibition at 10 µM [12]: 15%
- inhibition at 10 µM [13]: 23%
- half-life at 10 μM [14]: 56.8 min
- inhibition at 10 µM [15]: 3%

Structure (SMILES): Cc1cc(S(=O)(=O)Nc2nc(C)c3ccccc3n2)c(SCC(N)=O)cc1Cl [Compound 13, 2-Carbamoylmethylthio-4-chloro-5-methyl-N-(4-methylquinazolin-2-yl)benzenesulfonamide]
- inhibition at 10 µM [3]: 4%
- IC50 ([4]; MTT, 72 h, mean ± SD): 320 ± 22 µM
- IC50 [6]: 260 ± 5 µM
- IC50 [7]: 440 ± 4 µM
- inhibition at 10 µM [9]: 5%
- inhibition at 10 µM [10]: 6%
- melting point: 232 to 235 °C (dec.)
- inhibition at 10 µM [11]: 11%
- inhibition at 10 µM [12]: 8%
- half-life at 10 μM [14]: 75.4 min
- inhibition at 10 µM [15]: 12%

Structure (SMILES): CCOC(=O)CSc1cc(Cl)c(C)cc1S(=O)(=O)Nc1nc(C)c2ccccc2n1 [Compound 15, 4-Chloro-2-(2-ethoxy-2-oxoethylthio)-5-methyl-N-(4-methylquinazolin-2-yl)benzenesulfonamide]
- IC50 ([4]; MTT, 72 h, mean ± SD): 230 ± 7 µM
- IC50 [6]: 110 ± 2 µM
- IC50 [7]: 160 ± 6 µM
- melting point: 192 to 194 °C

Structure (SMILES): CCOC(=O)CSc1cc(Cl)c(C)cc1S(=O)(=O)Nc1nc(-c2ccccc2)c2ccccc2n1 [Compound 16, 4-Chloro-2-(2-ethoxy-2-oxoethylthio)-5-methyl-N-(4-phenyl-quinazolin-2-yl)benzenesulfonamide]
- IC50 ([4]; MTT, 72 h, mean ± SD): 74 ± 4 µM
- IC50 [4, 17]: 74 µM
- IC50 [6]: 62 ± 1 µM
- IC50 [7]: 105 ± 3 µM
- melting point: 162 to 165 °C

Structure (SMILES): Cc1nc(NS(=O)(=O)c2cc(C(=O)Nc3ccccc3)c(Cl)cc2SCc2ccccc2)nc2ccccc12 [Compound 17, 2-Benzylthio-4-chloro-5-phenylcarbamoyl-N-(4-methylquinazolin-2-yl)benzenesulfonamide]
- inhibition at 10 µM [1]: 3%
- inhibition at 10 µM [2]: 11%
- inhibition at 10 µM [3]: 12%
- IC50 ([4]; MTT, 72 h, mean ± SD): 72 ± 1 µM
- IC50 [4, 17]: 72 µM
- inhibition at 10 µM [5]: 5%
- IC50 [6]: 84 ± 3 µM
- IC50 [7]: 175 ± 10 µM
- inhibition at 10 µM [8]: 22%
- inhibition at 10 µM [9]: 18%
- inhibition at 10 µM [11]: 9%
- inhibition at 10 µM [12]: 24%
- inhibition at 10 µM [13]: 14%
- half-life at 10 μM [14]: 16 min
- inhibition at 10 µM [15]: 12%
- inhibition at 10 µM [16]: 20%

Structure (SMILES): Cc1nc(NS(=O)(=O)c2cc(C(=O)Nc3ccc(Cl)cc3)c(Cl)cc2SCc2ccccc2)nc2ccccc12 [Compound 21, 2-Benzylthio-4-chloro-5-(4-chlorophenylcarbamoyl)-N-(4-methylquinazolin-2-yl)benzenesulfonamide]
- inhibition at 10 µM [1]: 8%
- inhibition at 10 µM [2]: 8%
- inhibition at 10 µM [3]: 20%
- IC50 ([4]; MTT, 72 h, mean ± SD): 71 ± 2 µM
- IC50 [4, 17]: 71 µM
- inhibition at 10 µM [5]: 4%
- IC50 [6]: 54 ± 1 µM
- IC50 [7]: 115 ± 2 µM
- inhibition at 10 µM [8]: 12%
- inhibition at 10 µM [9]: 8%
- inhibition at 10 µM [10]: 5%
- inhibition at 10 µM [11]: 7%
- inhibition at 10 µM [12]: 22%
- inhibition at 10 µM [13]: 6%
- half-life at 10 μM [14]: 37.7 min
- inhibition at 10 µM [15]: 3%
- inhibition at 10 µM [16]: 8%
